In this experiment the test system is MDA-MB-231 human breast cancer cells. Nature of the experiment: Cell proliferation assay (CellTiter-Glo, 72 hours treatment). In kind it is cell-based. The following applies: Homo sapiens; MDA-MB-231 cells, 72 hours at 37° C., CellTiter-Glo; read-out: MDA-MB-231 cell proliferation assay (IC50). As for the experimental part:
Human tumor cell lines were cultured in the appropriate media (DMEM and RPMI) supplemented with penicillin G (100 U/ml), streptomycin (100 μg/ml), 10% FBS in a humidified atmosphere of 5% CO2 maintained at 37° C. Exponentially growing cells were seeded at 2,500 cells/well in 96 well plates prior to drug treatment. The following day, cells were treated with either DMSO (vehicle control) or eIF4A inhibitors at the appropriate dose for 72 hours at 37° C. Following compound treatment, cell proliferation was assessed by CellTiter-Glo assay (Promega, Madison Wis.) according to the manufacturer's protocol. Dose-response curves were fitted by non-linear regression (sigmoidal dose response model) using KaleidaGraph (Synergy Software, Reading Pa.) and IC50 values were calculated.
To this end, IC50 values of less than 100 nM are labelled as “+++”, from 100 nM to 1000 nM are labelled as “++”, and greater than 1000 nM are labelled as “+” (NA means “not available”).
For orientation: In ATP-based viability assays light output follows the ATP content of the culture.
As for `COc1ccc([C@@]23Oc4cc(OC)ccc4[C@]2(NC(C)=O)[C@H](O)[C@H](C(=O)N(C)C)[C@H]3c2ccccc2)cc1` (racemic) [45F, Rac-(1R,2R,3S,3aR,8bS)-8b-acetamido-1-hydroxy-6-methoxy-3a-(4-methoxyphenyl)-N,N-dimethyl-3-phenyl-2,3,3a,8b-tetrahydro-1H-cyclopenta[b]benzofuran-2-carboxamide], the IC50 is greater than 1000 nM.
Then `COC(=O)C(C[C@H]1C(=O)[C@@]2(O)c3ncc(Cl)cc3O[C@@]2(c2ccc(Br)cc2)[C@@H]1c1ccccc1)C(=O)OC` (racemic) [46F, Rac-dimethyl 2-[[(5aR,6S,7R,8aR)-5a-(4-bromophenyl)-3-chloro-8a-hydroxy-8-oxo-6-phenyl-6,7-dihydrocyclopenta[4,5]furo[1,2-b]pyridin-7-yl]methyl]propanedioate], with greater than 1000 nM; and `N#C[C@@H]1C[C@@H](c2ccccc2)[C@]2(c3ccc(Br)cc3)Oc3cc(Cl)cnc3[C@]12O` (racemic) [47F, Rac-(5aR,6S,8S,8aR)-5a-(4-bromophenyl)-3-chloro-8a-hydroxy-6-phenyl-5a,7,8,8a-tetrahydro-6H-cyclopenta[4,5]furo[3,2-b]pyridine-8-carbonitrile], with greater than 1000 nM.
With `C#CC1C[C@@H](c2ccccc2)[C@]2(c3ccc(Br)cc3)Oc3cc(Cl)cnc3[C@]12O` (mixture of isomers) [48F, Rac-(5aR,6S,8aR)-5a-(4-bromophenyl)-3-chloro-8-ethynyl-6-phenyl-5a,6,7,8-tetrahydro-8aH-cyclopenta[4,5]furo[3,2-b]pyridin-8a-ol] the figure was greater than 1000 nM.
`COC(=O)[C@@H]1[C@@H](c2ccccc2)[C@]2(c3ccc(Br)cc3)Oc3cc(Cl)cnc3[C@]2(O)[C@H]1C#N` (racemic) [49F, Rac-methyl (5aR,6S,7R,8R,8aR)-5a-(4-bromophenyl)-3-chloro-8-cyano-8a-hydroxy-6-phenyl-5a,7,8,8a-tetrahydro-6H-cyclopenta[4,5]furo[3,2-b]pyridine-7-carboxylate]: the IC50 was in the range of 100 to 1000 nM.
Take `COC(=O)[C@@H]1[C@@H](c2ccccc2)[C@]2(c3ccc(C#N)cc3)Oc3cc(Cl)cnc3[C@]2(O)[C@H]1C#N` (racemic) [50F, Rac-methyl (5aR,6S,7R,8R,8aR)-3-chloro-8-cyano-5a-(4-cyanophenyl)-8a-hydroxy-6-phenyl-5a,7,8,8a-tetrahydro-6H-cyclopenta[4,5]furo[3,2-b]pyridine-7-carboxylate]: the IC50 fell in the range of 100 to 1000 nM.
Turning to `CN(C)C(=O)[C@@H]1[C@@H](c2ccccc2)[C@]2(c3ccc(C#N)cc3)Oc3cc(Cl)cnc3[C@]2(O)[C@H]1C#N` (racemic) [51F, Rac-(5aR,6S,7R,8R,8aR)-3-chloro-8-cyano-5a-(4-cyanophenyl)-8a-hydroxy-N,N-dimethyl-6-phenyl-5a,7,8,8a-tetrahydro-6H-cyclopenta[4,5]furo[3,2-b]pyridine-7-carboxamide], the IC50 was in the range of 100 to 1000 nM.
With `N#Cc1ccc([C@@]23Oc4cc(Cl)cnc4[C@]2(O)[C@@H](C#N)[C@H](C(N)=O)[C@H]3c2ccccc2)cc1` (racemic) [52F, Rac-(5aR,6S,7R,8R,8aR)-3-chloro-8-cyano-5a-(4-cyanophenyl)-8a-hydroxy-6-phenyl-5a,7,8,8a-tetrahydro-6H-cyclopenta[4,5]furo[3,2-b]pyridine-7-carboxamide], the IC50 is 100 to 1000 nM.
`O=C1N[C@H]2[C@@H](O1)[C@@]1(O)c3ncc(Cl)cc3O[C@@]1(c1ccc(Br)cc1)[C@@H]2c1ccccc1` (racemic) [53F, Rac-(3aR,3bS,8aR,9R,9aR)-8a-(4-bromophenyl)-6-chloro-3b-hydroxy-9-phenyl-1,3a,3b,8a,9,9a-hexahydro-2H-oxazolo[4″,5″:4′,5′]cyclopenta[1′,2′:4,5]furo[3,2-b]pyridin-2-one]: the IC50 was less than 100 nM.
Then `N#Cc1ccc([C@@]23Oc4cc(Cl)cnc4[C@]2(O)[C@@H]2OC(=O)N[C@@H]2[C@H]3c2ccccc2)cc1` (racemic) [54F, Rac-4-((3aR,3bS,8aR,9R,9aR)-6-chloro-3b-hydroxy-2-oxo-9-phenyl-1,2,3a,3b,9,9a-hexahydro-8aH-oxazolo[4″,5″:4′,5′]cyclopenta[1′,2′:4,5]furo[3,2-b]pyridin-8a-yl)benzonitrile], with 100 to 1000 nM; and `OC[C@H]1[C@@H](O)[C@@]2(O)c3ncc(Cl)cc3O[C@@]2(c2ccc(Br)cc2)[C@@H]1c1ccccc1` (racemic) [55F, Rac-(5aR,6S,7S,8R,8aS)-5a-(4-bromophenyl)-3-chloro-7-(hydroxymethyl)-6-phenyl-5a,6,7,8-tetrahydro-8aH-cyclopenta[4,5]furo[3,2-b]pyridine-8,8a-diol], with 100 to 1000 nM.
Then `N#Cc1ccc([C@@]23Oc4cc(Cl)cnc4[C@]2(O)[C@H](O)[C@H](CO)[C@H]3c2ccccc2)cc1` (racemic) [56F, Rac-4-((5aR,6S,7S,8R,8aS)-3-chloro-8,8a-dihydroxy-7-(hydroxymethyl)-6-phenyl-6,7,8,8a-tetrahydro-5aH-cyclopenta[4,5]furo[3,2-b]pyridin-5a-yl)benzonitrile], with greater than 1000 nM; and `C[C@H]1[C@@H](O)[C@@]2(O)c3ncc(Cl)cc3O[C@@]2(c2ccc(Br)cc2)[C@@H]1c1ccccc1` (racemic) [57F, Rac-(5aR,6S,7R,8R,8aS)-5a-(4-bromophenyl)-3-chloro-7-methyl-6-phenyl-5a,6,7,8-tetrahydro-8aH-cyclopenta[4,5]furo[3,2-b]pyridine-8,8a-diol], with greater than 1000 nM; and `COC(=O)C1(F)[C@@H](O)[C@@]2(O)c3ncc(Cl)cc3O[C@@]2(c2ccc(Br)cc2)[C@@H]1c1ccccc1` (mixture of isomers) [58F, Rac-methyl (5aR,6S,8S,8aS)-5a-(4-bromophenyl)-3-chloro-7-fluoro-8,8a-dihydroxy-6-phenyl-5a,7,8,8a-tetrahydro-6H-cyclopenta[4,5]furo[3,2-b]pyridine-7-carboxylate], with greater than 1000 nM.
Then `COC(=O)C1(F)[C@@H](O)[C@@]2(O)c3ncc(Cl)cc3O[C@@]2(c2ccc(C#N)cc2)[C@@H]1c1ccccc1` (mixture of isomers) [59F, Rac-methyl (5aR,6S,8S,8aS)-3-chloro-5a-(4-cyanophenyl)-7-fluoro-8,8a-dihydroxy-6-phenyl-5a,7,8,8a-tetrahydro-6H-cyclopenta[4,5]furo[3,2-b]pyridine-7-carboxylate], with greater than 1000 nM; and `O[C@]12c3ncc(Cl)cc3O[C@@]1(c1ccc(Br)cc1)[C@H](c1ccccc1)[C@H]1CO[C@H]12` (racemic) [60F, Rac-(2aS,3S,3aR,8bS,8cR)-3a-(4-bromophenyl)-6-chloro-3-phenyl-2a,3,3a,8c-tetrahydrooxeto[3″,2″:4′,5′]cyclopenta[1′,2′:4,5]furo[3,2-b]pyridin-8b(2H)-ol], with greater than 1000 nM.
`N#Cc1ccc([C@@]23Oc4cc(Cl)cnc4[C@]2(O)[C@@H]2OC[C@@H]2[C@H]3c2ccccc2)cc1` (racemic) [61F, rac-4-((2aS,3S,3aR,8bS,8cR)-6-chloro-8b-hydroxy-3-phenyl-2a,3,8b,8c-tetrahydrooxeto[3″,2″:4′,5′]cyclopenta[1′,2′:4,5]furo[3,2-b]pyridin-3a(2H)-yl)benzonitrile]: the IC50 was greater than 1000 nM.
With `COC[C@H]1[C@@H](O)[C@@]2(O)c3ncc(Cl)cc3O[C@@]2(c2ccc(Br)cc2)[C@@H]1c1ccccc1` (racemic) [62F, rac-(5aR,6S,7S,8R,8aS)-5a-(4-bromophenyl)-3-chloro-7-(methoxymethyl)-6-phenyl-5a,6,7,8-tetrahydro-8aH-cyclopenta[4,5]furo[3,2-b]pyridine-8,8a-diol] the figure was 100 to 1000 nM.

These data come from patent publication US10577378B2, “EIF4A-inhibiting compounds and methods related thereto” (eFFECTOR Therapeutics, Inc., priority 2015, dated 2020).
